Test results from ChEMBL document CHEMBL1153557, “Effect of calcineurin inhibitors on posaconazole blood levels as measured by the MVista microbiological assay” (Antimicrob Agents Chemother, 2008).
Active and inactive are the calls of the source. The rule behind the calls is not given here.

Columns and labels:
Kluyveromyces marxianus [1] = experiment: Antifungal activity against Candida kefyr ATCC 46764 at 3 ug/ml after 14 to 18 hrs; type: functional; details: read-out: IZ
Kluyveromyces marxianus [2] = experiment: Antifungal activity against Candida kefyr ATCC 46764 at 0.5 ug/ml after 14 to 18 hrs; type: functional; details: read-out: IZ
Kluyveromyces marxianus [3] = experiment: Antifungal activity against Candida kefyr ATCC 46764 at 1.5 ug/ml after 14 to 18 hrs; type: functional; details: read-out: IZ
Homo sapiens = species: Homo sapiens; experiment: Effect on […] level in plasma of transplant patient by MVista microbiological assay; type: functional
Kluyveromyces marxianus [4] = experiment: Antifungal activity against Candida kefyr ATCC 46764 after 14 to 18 hrs; type: functional, organism-based

Structure (SMILES): C/C=C/C[C@@H](C)[C@@H](O)[C@H]1C(=O)N[C@@H](CC)C(=O)N(C)CC(=O)N(C)[C@@H](CC(C)C)C(=O)N[C@@H](C(C)C)C(=O)N(C)[C@@H](CC(C)C)C(=O)N[C@@H](C)C(=O)N[C@H](C)C(=O)N(C)[C@@H](CC(C)C)C(=O)N(C)[C@@H](CC(C)C)C(=O)N(C)[C@@H](C(C)C)C(=O)N1C [CYCLOSPORINE]
- zone of inhibition at 3 µg/mL (Kluyveromyces marxianus [1]): 23.3 mm
- zone of inhibition at 0.5 µg/mL (Kluyveromyces marxianus [2]): 15.5 mm
- zone of inhibition at 1.5 µg/mL (Kluyveromyces marxianus [3]): 20.5 mm

Structure (SMILES): CC[C@@H]([C@H](C)O)n1ncn(-c2ccc(N3CCN(c4ccc(OC[C@@H]5CO[C@@](Cn6cncn6)(c6ccc(F)cc6F)C5)cc4)CC3)cc2)c1=O [POSACONAZOLE]
- zone of inhibition at 3 µg/mL (Kluyveromyces marxianus [1]): 23.2 mm
- zone of inhibition at 0.5 µg/mL (Kluyveromyces marxianus [2]): 16.5 mm
- zone of inhibition at 1.5 µg/mL (Kluyveromyces marxianus [3]): 20.6 mm

Structure (SMILES): CO[C@H]1C[C@@H]2CC[C@@H](C)[C@@](O)(O2)C(=O)C(=O)N2CCCC[C@H]2C(=O)O[C@H]([C@H](C)C[C@@H]2CC[C@@H](O)[C@H](OC)C2)CC(=O)[C@H](C)/C=C(\C)[C@@H](O)[C@@H](OC)C(=O)[C@H](C)C[C@H](C)/C=C/C=C/C=C/1C [SIROLIMUS]
- Activity (Homo sapiens): 7.1 ng/mL

Structure (SMILES): C=CC[C@@H]1/C=C(\C)C[C@H](C)C[C@H](OC)[C@H]2O[C@@](O)(C(=O)C(=O)N3CCCC[C@H]3C(=O)O[C@H](/C(C)=C/[C@@H]3CC[C@@H](O)[C@H](OC)C3)[C@H](C)[C@@H](O)CC1=O)[C@H](C)C[C@@H]2OC [TACROLIMUS ANHYDROUS]
- Activity (Homo sapiens): 4.2 ng/mL
- Activity (Kluyveromyces marxianus [4]): inactive
